Laboratory results published in publication PMC11050823, “The Cyclic Imine Core Common to the Marine Macrocyclic Toxins Is Sufficient to Dictate Nicotinic Acetylcholine Receptor Antagonism” (Marine Drugs, 2024).
Entries after “also recorded” stand apart in the source; their conditions may differ. Like-named read-outs stand apart in the source and are kept apart here. Marks after values point to notes of the source that are not given here.

What was measured:
[1] = target: Torpedo muscle-type α1_2βγδ nAChR (Torpedo marmorata, UniProt P02711+Q6S3H8+Q6S3H9); assay: Manual TEVC recording of ACh-evoked currents in Xenopus oocytes micro-transplanted with Torpedo electrocyte membranes; type: cell-based; settings: for Hill Slope: concentration-inhibition curve, ACh 25 µM
From the text: (§1) Functional analysis of the (±)-4 racemate and (+)-4 R and (−)-4 S enantiomers used either manual or automated two-electrode voltage-clamp (TEVC) recordings on Xenopus laevis oocytes at −60 mV holding membrane potential. The oocytes were either micro-transplanted with Torpedo α1_2βγδ-enriched electrocyte membranes or transfected with human α7 or α4β2-encoding cDNAs. When applied alone (see Experimental Procedures), none of the three spiroimines induced nAChR channel opening, thereby discarding any agonistic activity toward these nAChR subtypes. Instead, when applied together with ACh at its EC50 concentration for each nAChR subtype, all three spiroimines clearly behaved as nicotinic antagonists, whose potency depended on the receptor subtype examined (Figure 2; Table 1).
(§2) The sources for live animals and biological materials, the procedures for nAChR microtransplantation and expression in oocytes, and the procedures for manual (α1_2βγδ nAChR) and automated (α7 and α4β2 nAChRs) TEVC recording are detailed in Appendix C. […] Then, the oocyte was perfused for 45 s with the tested spiroimine at a given concentration, immediately followed by the co-application of ACh and the spiroimine at the same concentrations and times as indicated above. The oocyte was washed with Ringer’s solution, and then recovery of the ACh-evoked current was recorded.
(§3) The concentration–inhibition curves were analyzed as previously detailed using the equation I = Imax [L]^nH/(EC50^nH + [L]^nH) (Equation (1)), where I is the measured agonist-evoked current, [L] is the agonist concentration, EC50 is the agonist concentration that evoked half the maximal current (I^max), and nH is the Hill coefficient. For antagonist inhibition, current (I) values were normalized to the I^max value recorded from the same oocyte to yield the fractional (%) response data. IC50 values were established from the concentration–response curves by fitting to the equation F = 1/[1 + ([X]/IC50)^nH] (Equation (2)), where F is the fractional response obtained in the presence of the inhibitor at concentration [X], and IC50 is the inhibitor concentration reducing the ACh-evoked amplitude by half. Data analysis was performed without constraints as Log[spiroimine] versus response (three parameters), with a Hill slope ~1. Statistical significance of differences between the control and test values was assessed using either the two-tailed Student’s “t” test or the Kolmogorov–Smirnov two-sample test and p < 0.05.
(§4) Torpedo membranes containing α1_2βγδ nAChR were microtransplanted into the oocyte cytoplasm by microinjecting a membrane suspension (50 nL at 2.5 µg/µL, i.e., 125 ng total protein, in 5 mM glycine) with an electronic micro-injector (Nanoliter2000 Micro4 Controller, World Precision Instruments Inc., Hertfordshire, UK) mounted on a microscope. Human α7 and α4β2 nAChRs were expressed through microinjection, into the oocyte nucleus, of α7 mRNA and of a 1:1 (w/w) mixture of α4 and β2 cDNAs (a ratio favoring expression of the α4_3β2_2 population over the α4_2β2_3 population) (50 nL at 1 µg/µL) in a pRc/CMV expression vector (Invitrogen). Oocytes were maintained at 18 °C and TEVC recordings were performed 1–4 days later in a room with controlled temperature (20 °C).
Manual TEVC on α1_2βγδ nAChR oocytes was carried out using an OC-725B amplifier (Warner Instrument Corp., Hamden, CT, USA). Voltage and current borosilicate glass microelectrodes were filled with KCl 3 M and had 0.5–1.5 MΩ tip resistances. For data acquisition and recording, a pCLAMP-9/Digidata-1322A system (Molecular Devices, San Jose, CA, USA) was used. The oocyte recording chamber of 300 μL was superfused at a high rate (8–12 mL.min^−1) with a modified oocyte Ringer’s solution made of HEPES 5 mM pH 7.4, NaCl 100 mM, KCl 2.8 mM, and BaCl2 0.3 mM, where BaCl2 substitution to the original CaCl2 prevents secondary activation of a Ca^2+-dependent Cl^− current. […]

human neuronal α7 nAChR = target: T1, human neuronal α7 nAChR (Homo sapiens, UniProt P36544); assay: Automated TEVC recording of ACh-evoked currents in Xenopus oocytes expressing human α7 nAChR; type: cell-based; settings: for Hill Slope: concentration-inhibition curve, ACh 100 µM; for Hill Slope / IC50: 95% confidence interval in parentheses; for IC50: inhibition of ACh-evoked current, ACh 100 µM (EC50), −60 mV
T1 construct: expressed in transfected cells; host or cells: Xenopus laevis oocytes
From the text: as §1, §2, §3, §4
(§5) Automated TEVC on α7 and α4β2 nAChR oocytes was performed using a HiClamp system (Multi Channel Systems, GmbH., Reutlingen, Germany). Oocytes free of follicular cells were transferred from the 96-wells of the oocyte microplate to a recording basket carrying the reference bath electrode. Oocytes were automatically impaled and clamped at a holding potential of −60 mV using borosilicate glass microelectrodes of 0.5–5 MΩ tip resistances, filled with a 1:1 (v/v) mixture of KCl 1 M and KAc 1 M. The clamped oocytes were exposed twice or thrice to ACh by incubation into a well containing ACh (at the EC50 for the assayed nAChR subtype) to obtain a control IACh peak amplitude. […]

[2] = target: T2, human neuronal α4β2 nAChR (Homo sapiens, UniProt P17787+P43681); assay: Automated TEVC recording of ACh-evoked currents in Xenopus oocytes expressing human α4β2 nAChR; type: cell-based; settings: for Hill Slope: concentration-inhibition curve, ACh 150 µM; for Hill Slope / IC50: 95% confidence interval in parentheses; for IC50: inhibition of ACh-evoked current, ACh 150 µM (EC50), −60 mV
T2 construct: expressed in transfected cells; host or cells: Xenopus laevis oocytes; cDNAs in pRc/CMV vector
From the text: as §1, §2, §3, §4, §5

L-AChBP [3] = target: T3, L-AChBP (Lymnaea stagnalis, UniProt P58154); assay: Stopped-flow Trp fluorescence kinetic and equilibrium binding to purified L-AChBP; settings: L-AChBP
T3 construct: made in house; host or cells: stably transfected HEK293S-GnTI- cells
Protocol: (§6) Equilibrium dissociation constants were determined either from ratios (Kd/(koff/kon)) of rate constants determined using multiple kinetic means (kon, koff, koff/GAL) or directly from stopped-flow measurements (Kd/SFeq, Kd/SPAeq) (see Experimental Procedures).
(§7) The procedures for stable expression and purification of A- and L-AChBPs are described in Appendix D. Rate constants for association (kon) and dissociation (koff) were determined by multiple kinetic means, largely as previously described. Measurement of kon and koff values entailed the direct admixture of reactants and monitoring the quenching of AChBP native Trp fluorescence. Individual rate constants were determined from linear regression of the experimental mono-exponential decay of Trp fluorescence intensity (kobs) using the linear “approach-to-equilibrium” relationship kobs = kon[spiroimine] + koff (Equation (3)). Additional measurements of koff (koff/GAL) employed stopped-flow measurement of the rate of occupation of free AChBP binding sites by a competing ligand (gallamine, used in large excess relative to its Kd) to form a non-quenching gallamine-AChBP complex. Equilibrium dissociation constants were determined either from the ratios of rate constants (Kd/(koff/kon)), or from stopped-flow measurements of the rates of gallamine or epibatidine binding to pre-equilibrated spiroimine-AChBP complexes formed using increasing spiroimine concentrations (Kd/SFeq), or by the scintillation proximity assay (SPA) where spiroimine competition against the binding of [^3H]epibatidine (to L-AChBP) or [^3H]methyllycaconitine (to A-AChBP) was monitored at equilibrium (Kd/SPAeq). […] The time course of [^3H]ligand binding was monitored over several hours.
(§8) A- and L-AChBP, flanked with an N-terminal FLAG epitope with residues numbered (-8)[…](0), were expressed as soluble, exported proteins using synthetic cDNA and stably-transfected HEK293S-GnTI^− cells selected for G418 resistance, and cultured in Dulbecco’s modified Eagle’s medium (MediaTech CellGro, Albany, NY, USA) containing fetal bovine serum (FBS) 2% (v/v). The conditioned medium was collected every 1–3 days for up to 4 weeks, supplemented with NaN3 0.02% (w/v) and stored at 4 °C. AChBPs were purified on immobilized anti-FLAG M2 antibody (Sigma-Aldrich) with elution using FLAG peptide 100 μg/mL in TRIS-HCl 50 mM pH 7.4, NaCl 150 mM, NaN3 0.02% (w/v). Purified proteins were dialyzed against the same buffer, concentrated by ultrafiltration, filtered on a 0.22 µm membrane, and stored on ice at 4 °C.

L-AChBP [4] = target: T3, L-AChBP; assay: Scintillation proximity assay, competition against [3H]epibatidine binding to L-AChBP
Protocol: as §6, §7
(§9) A- and L-AChBP, flanked with an N-terminal FLAG epitope with residues numbered (-8)[…](0), were expressed as soluble, exported proteins using synthetic cDNA and stably-transfected HEK293S-GnTI^− cells selected for G418 resistance, and cultured in Dulbecco’s modified Eagle’s medium (MediaTech CellGro, Albany, NY, USA) containing fetal bovine serum (FBS) 2% (v/v). […]

A-AChBP [5] = target: T4, A-AChBP (Aplysia californica, UniProt Q8WSF8); assay: Stopped-flow Trp fluorescence kinetic and equilibrium binding to purified A-AChBP; settings: A-AChBP
Protocol: as §6, §7, §8
Target sequence in this assay (Q8WSF8 entry or part of it): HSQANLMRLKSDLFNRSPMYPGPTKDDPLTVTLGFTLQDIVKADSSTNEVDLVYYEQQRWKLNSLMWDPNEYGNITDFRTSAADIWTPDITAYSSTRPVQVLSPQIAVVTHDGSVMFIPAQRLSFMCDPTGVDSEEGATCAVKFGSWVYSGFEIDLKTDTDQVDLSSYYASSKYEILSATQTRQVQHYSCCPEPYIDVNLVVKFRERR

A-AChBP [6] = target: T4, A-AChBP; assay: Scintillation proximity assay, competition against [3H]methyllycaconitine binding to A-AChBP; parameters: made in house; host or cells: stably transfected HEK293S-GnTI- cells
Protocol: as §6, §7, §9
Target sequence in this assay (Q8WSF8 entry or part of it): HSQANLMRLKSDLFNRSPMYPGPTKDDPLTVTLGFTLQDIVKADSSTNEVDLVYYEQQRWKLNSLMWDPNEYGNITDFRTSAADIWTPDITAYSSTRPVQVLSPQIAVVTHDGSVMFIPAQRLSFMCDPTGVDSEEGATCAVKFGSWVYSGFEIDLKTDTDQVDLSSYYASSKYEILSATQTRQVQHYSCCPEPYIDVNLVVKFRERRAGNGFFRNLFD

[7] = calculated from the rate constants, read-out: Kd/(koff/kon)
[8] = quenching of native Trp fluorescence
[9] = quenching of native Trp fluorescence, read-out: koff (converted)
[10] = stopped-flow on pre-equilibrated complexes, single experiment in triplicate, read-out: Kd/SFeq
[11] = stopped-flow with competing gallamine in large excess, read-out: koff/GAL (converted)
[12] = Kd/(koff/kon), calculated from the rate constants
[13] = Kd/SFeq, stopped-flow on pre-equilibrated complexes, single experiment in triplicate

Chain of Torpedo muscle-type α1_2βγδ nAChR (P02711 25-461): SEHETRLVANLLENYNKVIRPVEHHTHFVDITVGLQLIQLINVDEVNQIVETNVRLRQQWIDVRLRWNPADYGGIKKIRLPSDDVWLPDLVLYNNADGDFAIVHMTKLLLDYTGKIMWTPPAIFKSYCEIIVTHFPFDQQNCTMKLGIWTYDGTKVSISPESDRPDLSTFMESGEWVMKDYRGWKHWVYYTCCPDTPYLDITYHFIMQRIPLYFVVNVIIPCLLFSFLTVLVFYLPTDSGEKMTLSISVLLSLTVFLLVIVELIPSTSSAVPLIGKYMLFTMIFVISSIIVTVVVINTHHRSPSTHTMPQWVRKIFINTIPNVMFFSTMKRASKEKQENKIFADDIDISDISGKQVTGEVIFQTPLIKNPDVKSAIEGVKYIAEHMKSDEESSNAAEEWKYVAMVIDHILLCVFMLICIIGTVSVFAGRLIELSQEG
Chain of Torpedo muscle-type α1_2βγδ nAChR (Q6S3H9 18-505): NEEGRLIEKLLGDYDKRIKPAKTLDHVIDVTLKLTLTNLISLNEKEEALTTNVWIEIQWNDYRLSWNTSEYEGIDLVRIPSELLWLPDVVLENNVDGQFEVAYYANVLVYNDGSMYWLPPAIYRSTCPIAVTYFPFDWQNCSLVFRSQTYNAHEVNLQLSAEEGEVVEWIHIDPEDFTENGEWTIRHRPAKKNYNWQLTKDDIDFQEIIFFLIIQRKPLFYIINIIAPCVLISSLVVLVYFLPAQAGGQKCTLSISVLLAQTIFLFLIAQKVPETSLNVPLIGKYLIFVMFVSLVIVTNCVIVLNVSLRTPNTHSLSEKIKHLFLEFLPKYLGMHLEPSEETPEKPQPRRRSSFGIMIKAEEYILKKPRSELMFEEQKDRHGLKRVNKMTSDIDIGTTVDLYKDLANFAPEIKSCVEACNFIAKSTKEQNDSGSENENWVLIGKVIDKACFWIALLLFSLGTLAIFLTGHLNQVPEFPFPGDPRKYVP
Chain of Torpedo muscle-type α1_2βγδ nAChR (Q6S3H8 22-522): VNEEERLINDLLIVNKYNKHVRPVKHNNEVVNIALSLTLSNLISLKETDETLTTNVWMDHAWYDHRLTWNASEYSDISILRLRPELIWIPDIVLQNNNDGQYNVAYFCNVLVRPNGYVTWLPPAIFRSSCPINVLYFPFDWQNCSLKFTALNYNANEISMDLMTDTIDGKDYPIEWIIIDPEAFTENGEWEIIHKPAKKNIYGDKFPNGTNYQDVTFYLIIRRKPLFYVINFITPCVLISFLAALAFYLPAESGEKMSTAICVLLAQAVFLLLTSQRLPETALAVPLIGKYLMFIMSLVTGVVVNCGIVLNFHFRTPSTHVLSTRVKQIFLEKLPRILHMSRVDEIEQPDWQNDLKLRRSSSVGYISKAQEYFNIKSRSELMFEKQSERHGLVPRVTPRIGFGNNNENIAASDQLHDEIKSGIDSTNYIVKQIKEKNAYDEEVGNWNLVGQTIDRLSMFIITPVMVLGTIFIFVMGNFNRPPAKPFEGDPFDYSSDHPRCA
Chain of Torpedo muscle-type α1_2βγδ nAChR (Q6S3I0 25-493 partner): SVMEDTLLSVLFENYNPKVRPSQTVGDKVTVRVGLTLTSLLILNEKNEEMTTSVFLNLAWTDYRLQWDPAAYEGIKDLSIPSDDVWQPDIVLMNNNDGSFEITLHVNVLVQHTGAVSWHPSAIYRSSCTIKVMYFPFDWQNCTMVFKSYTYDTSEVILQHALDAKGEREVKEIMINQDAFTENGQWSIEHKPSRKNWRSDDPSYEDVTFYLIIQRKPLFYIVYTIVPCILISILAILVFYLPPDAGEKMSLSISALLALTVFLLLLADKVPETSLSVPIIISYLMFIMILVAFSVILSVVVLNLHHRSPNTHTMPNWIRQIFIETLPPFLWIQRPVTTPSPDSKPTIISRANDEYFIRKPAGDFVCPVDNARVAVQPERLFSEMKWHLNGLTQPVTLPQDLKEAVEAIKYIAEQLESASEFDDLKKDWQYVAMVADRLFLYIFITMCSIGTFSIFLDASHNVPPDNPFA
T1 sequence (P36544 23-502): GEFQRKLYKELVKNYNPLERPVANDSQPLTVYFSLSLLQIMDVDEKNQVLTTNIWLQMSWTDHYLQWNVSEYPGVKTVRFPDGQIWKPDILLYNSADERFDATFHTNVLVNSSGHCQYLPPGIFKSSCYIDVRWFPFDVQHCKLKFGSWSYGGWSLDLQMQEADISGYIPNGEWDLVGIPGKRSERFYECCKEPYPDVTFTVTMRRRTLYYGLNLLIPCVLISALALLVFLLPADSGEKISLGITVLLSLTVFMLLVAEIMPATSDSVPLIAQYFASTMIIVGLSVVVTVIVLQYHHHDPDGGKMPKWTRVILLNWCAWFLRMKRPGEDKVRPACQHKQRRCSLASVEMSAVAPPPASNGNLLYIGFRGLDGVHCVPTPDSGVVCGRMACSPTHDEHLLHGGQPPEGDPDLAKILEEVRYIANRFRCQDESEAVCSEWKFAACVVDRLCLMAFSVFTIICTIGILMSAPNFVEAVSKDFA
T2 sequence (P43681 29-627 limits assumed): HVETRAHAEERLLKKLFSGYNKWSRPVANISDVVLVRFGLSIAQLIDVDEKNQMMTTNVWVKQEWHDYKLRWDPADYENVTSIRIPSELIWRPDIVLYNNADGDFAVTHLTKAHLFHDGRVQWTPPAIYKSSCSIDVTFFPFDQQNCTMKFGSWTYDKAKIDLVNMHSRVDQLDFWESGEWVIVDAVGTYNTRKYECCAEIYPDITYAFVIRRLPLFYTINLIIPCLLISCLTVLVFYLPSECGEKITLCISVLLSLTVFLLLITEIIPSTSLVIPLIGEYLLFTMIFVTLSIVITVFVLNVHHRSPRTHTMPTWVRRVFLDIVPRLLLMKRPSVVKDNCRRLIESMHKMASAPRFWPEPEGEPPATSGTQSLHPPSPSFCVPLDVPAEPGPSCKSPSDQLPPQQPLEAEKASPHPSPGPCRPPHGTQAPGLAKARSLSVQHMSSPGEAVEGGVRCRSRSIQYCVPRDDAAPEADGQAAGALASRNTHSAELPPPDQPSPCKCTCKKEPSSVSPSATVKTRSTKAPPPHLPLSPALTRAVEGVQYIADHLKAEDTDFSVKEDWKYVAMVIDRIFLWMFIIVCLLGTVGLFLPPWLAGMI
T2 sequence (P17787 26-502): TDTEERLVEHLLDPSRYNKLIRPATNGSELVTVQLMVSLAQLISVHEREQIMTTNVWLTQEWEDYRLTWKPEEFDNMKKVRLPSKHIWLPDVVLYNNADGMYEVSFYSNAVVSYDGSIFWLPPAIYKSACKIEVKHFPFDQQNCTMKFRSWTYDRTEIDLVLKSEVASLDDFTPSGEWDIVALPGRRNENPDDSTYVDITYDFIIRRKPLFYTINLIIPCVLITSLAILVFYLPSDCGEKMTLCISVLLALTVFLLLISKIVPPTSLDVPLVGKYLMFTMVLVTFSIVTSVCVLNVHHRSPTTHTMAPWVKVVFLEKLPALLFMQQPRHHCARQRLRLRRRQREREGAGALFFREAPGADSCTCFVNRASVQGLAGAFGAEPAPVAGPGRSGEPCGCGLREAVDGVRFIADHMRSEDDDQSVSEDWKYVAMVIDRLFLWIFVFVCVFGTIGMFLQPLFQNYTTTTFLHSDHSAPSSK
T3 sequence (P58154 20-229): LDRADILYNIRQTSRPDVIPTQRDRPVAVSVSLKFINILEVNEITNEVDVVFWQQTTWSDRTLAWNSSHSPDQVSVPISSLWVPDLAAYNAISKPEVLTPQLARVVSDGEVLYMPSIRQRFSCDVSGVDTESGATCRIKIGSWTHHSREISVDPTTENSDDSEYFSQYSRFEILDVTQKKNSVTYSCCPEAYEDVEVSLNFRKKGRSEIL

Structure (SMILES) | Hill Slope [1] | Hill Slope (human neuronal α7 nAChR) | IC50 (human neuronal α7 nAChR) | Hill Slope [2] | IC50 [2] | Kd (L-AChBP [3]; [7]) | kon (L-AChBP [3]; [8]) | koff (L-AChBP [3]; [9]) | Kd (L-AChBP [3]; [10]) | koff (L-AChBP [3]; [11]) | Kd (L-AChBP [4]) | kon (A-AChBP [5]; [8]) | koff (A-AChBP [5]; [9]) | koff (A-AChBP [5]; [11]) | Kd (A-AChBP [5]; [12]) | Kd (A-AChBP [5]; [13]) | Kd (A-AChBP [6]) | also measured
CC1=NCCCC12CCCCC21OCCO1 (racemic) [Racemic (±)-4, 7-methyl-1,4-dioxa-8-azadispiro[4.0.5.4]pentadec-7-ene] | ~1 ^b | 0.61 (0.47–0.75) ^b | 2110 nM | 1.08 (0.86–1.29) ^b | 6960 nM | 1700 nM | 6e+07 M⁻¹ s⁻¹ | 103 s⁻¹ | 320 nM | 112 s⁻¹ | 2600 ± 1900 nM | 1.05e+08 M⁻¹ s⁻¹ | 300 s⁻¹ | 250 s⁻¹ | 2900 nM | 4200 nM | 2400 ± 1500 nM | recovery of the ACh-evoked current after washout of bound spiroimine ([1]; 10 µM spiroimine, washout with ACh, desensitized state): full recovery of the nicotinic current; recovery of the ACh-evoked current after washout of bound spiroimine ([2]; 10 µM spiroimine, wash): fast reversibility; also recorded: fast and complete; Kd (L-AChBP [3]; stopped-flow on pre-equilibrated complexes, biphasic curve, read-out: Kd/SFeq, second constant from a biphasic curve): 15000 nM
CC1=NCCC[C@@]12CCCCC21OCCO1 [Spiroimine (−)-4 S, 7-methyl-1,4-dioxa-8-azadispiro[4.0.5.4]pentadec-7-ene] | ~1 ^b | 0.58 (0.44–0.72) ^b | 1450 nM | 0.53 (0.32–0.74) ^b | 1410 nM | 410 nM | 1.3e+08 M⁻¹ s⁻¹ | 53.3 s⁻¹ | 320 nM | 103 s⁻¹ | 3400 nM | 1.02e+08 M⁻¹ s⁻¹ | 433 s⁻¹ | 400 s⁻¹ | 4300 nM | 5400 nM | 2400 ± 500 nM | recovery of the ACh-evoked current after washout of bound spiroimine (human neuronal α7 nAChR; 10 µM spiroimine, wash with Ringer's solution): fast and complete; Kd (L-AChBP [3]; read-out: Kd values (range of magnitude)): ~100 nM
